# Experiments:
# HCMV (strain AD169) [1] = assay: Inhibition of HCMV replication, ELISA assay (Hs-68 cells); format: cell-based, Human Cytomegalovirus (HCMV); settings: read-out: ELISA CMV EC50
# Procedure: C) Inhibition of Human Cytomegalovirus (HCMV) Replication
# The effect of compounds on the replication of HCMV has been measured by using an ELISA-based assay (ELISA) and a plaque reduction assay (PRA).
# Hs-68 cells (ATCC # CRL 1635) were seeded in 96 well microtiter plates at 10,000 cells/well in 100 μL of DMEM medium (Gibco Canada Inc.) supplemented with 10% fetal bovine serum (FBS, Gibco Canada Inc.). The plates were incubated for 3 days at 37° to allow the cells to reach 80-90% confluency prior to the assay.
# The medium was removed from wells by aspiration. The cells then were infected at a multiplicity of infection (MOI) of 0.01 PFU/cell with 50 μL of HCMV (strain AD169, ATCC VR-538) in DMEM medium supplemented with 5% heat inactivated FBS (assay medium). The virus was allowed to adsorb to cells for 2 h at 37°. Following viral adsorption, the medium was removed from the wells by aspiration. The cells were washed twice with 200 μL of assay medium to remove unabsorbed virus. The cells were then incubated with or without 100 μL of appropriate concentrations of test reagent in assay medium. After 8 days of incubation at 37°, the extent of viral replication was determined by an ELISA assay which detects the late structural protein p28 of HCMV.
# Eight days after infection, the medium was aspirated from the wells. Non-specific binding sites were blocked by adding 200 μL of phosphate buffered saline containing 1% (w/v) bovine serum albumin (blocking buffer) to each well and incubating the plates for 30 min at room temperature. After removal of the blocking buffer by aspiration, the cells were fixed with 100 μL of cold ethanol-acetone solution (95:5) per well. The plates were placed at -20° for 30 min. The plates were washed 4 times with phosphate buffered saline containing 0.05% (v/v) polyoxyethylene sorbitan monolaurate (Tween®). Thereafter, 100 μL of mAb UL99 (Advanced Biotechnologies Inc., #13-130-100) recognizing HCMV protein p28 was added to each wells and plates were incubated for 2 h at room temperature. The plates were washed four times with 200 μL of the above-noted phosphate buffered saline/Tween-20® solution. The cells were then incubated with 100 μL of sheep anti-mouse IgGγ horseradish peroxidase conjugated for 2 h at room temperature. The plates were then washed four times with 200 μL of above-noted phosphate buffered saline/Tween-20® solution. Thereafter, 100 μL of ortho phenylenediamine dihydrochloride (OPD, Gibco Canada Inc.) solution was added to each well and the plates were agitated on a microplate shaker for 30 min in the dark. Color development was monitored at 450 nm using a microplate spectrophotometer.
# The SAS program was used to calculate the % inhibition of viral replication and to generate EC50 values.
# The EC50 values obtained according to this assay method for certain thiazolylphenyl derivatives of this invention are listed in the following tables under the heading ELISA CMV.
# HSV-1 strain F or KOS = assay: Inhibition of herpes simplex virus (HSV-1) replication in cell culture (BHK-21 cells, glycoprotein C ELISA); format: cell-based
# In short: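 Replication readout: ELISA for HSV-1 late glycoprotein C (mAb C11, peroxidase-OPD, 450 nm) on glutaraldehyde-fixed cells. Monolayers (~50,000 cells/well) were infected with strain F or KOS (MOI 0.05 PFU/cell), then incubated 24 h at 37° with compound in 2% FBS α-MEM. EC50 derived from % inhibition.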
# HSV-1 helicase-primase = molecular target: T1, HSV-1 helicase-primase (Human herpesvirus 1, UniProt P10189+P10236); assay: HSV-1 DNA-dependent ATPase assay (inhibition of HSV-1 helicase-primase); format: biochemical
# T1 construct: made in house; host or cells: Sf21 insect cells triply infected with recombinant baculoviruses (UL5, UL8, UL52)
# In short: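 ATP hydrolysis was measured as inorganic phosphate (malachite green/molybdate, 650 nm) after 20 min at 34°. Reaction: 3 μg/mL purified Sf21-expressed UL5/UL8/UL52 helicase-primase, 25 μM single-stranded M13 DNA hybridized to 68-mer, 4 mM ATP, pH 7.5 HEPES buffer, 3.3% DMSO. Net absorbance change with and without inhibitor gave DNA-dependent ATPase activity.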
# HCMV (strain AD169) [2] = assay: Inhibition of HCMV replication, plaque reduction assay (PRA, Hs-68 cells); format: cell-based, Human Cytomegalovirus (HCMV); settings: read-out: PRA CMV EC50
# In short: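 Hs-68 monolayers (80–90% confluent) were infected with ~50 PFU HCMV AD169 for 2 h at 37°, then given compound in DMEM/5% inactivated FBS, refreshed after 4 days and kept 4 more days. Plaques were counted after formaldehyde fixation and crystal violet staining. EC50 derives from percent plaque reduction versus untreated wells.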
# [3] = Human betaherpesvirus 5, AD169, Hs68, Group 1 Table 1 entries
# [4] = Human alphaherpesvirus 1, BHK-21, Group 1 Table 1 entries
# [5] = Human betaherpesvirus 5, AD169, Hs68, Group 1 Table 6 entries
# [6] = Human alphaherpesvirus 1, BHK-21, Group 1 Table 6 entries
# [7] = Human betaherpesvirus 5, AD169, Hs68, Group 1 Table 5 entries
# [8] = Human alphaherpesvirus 1, BHK-21, Group 1 Table 5 entries
# [9] = Human betaherpesvirus 5, AD169, Hs68, Group 2 Table 1 entries
# T1 sequence (P10192 whole entry): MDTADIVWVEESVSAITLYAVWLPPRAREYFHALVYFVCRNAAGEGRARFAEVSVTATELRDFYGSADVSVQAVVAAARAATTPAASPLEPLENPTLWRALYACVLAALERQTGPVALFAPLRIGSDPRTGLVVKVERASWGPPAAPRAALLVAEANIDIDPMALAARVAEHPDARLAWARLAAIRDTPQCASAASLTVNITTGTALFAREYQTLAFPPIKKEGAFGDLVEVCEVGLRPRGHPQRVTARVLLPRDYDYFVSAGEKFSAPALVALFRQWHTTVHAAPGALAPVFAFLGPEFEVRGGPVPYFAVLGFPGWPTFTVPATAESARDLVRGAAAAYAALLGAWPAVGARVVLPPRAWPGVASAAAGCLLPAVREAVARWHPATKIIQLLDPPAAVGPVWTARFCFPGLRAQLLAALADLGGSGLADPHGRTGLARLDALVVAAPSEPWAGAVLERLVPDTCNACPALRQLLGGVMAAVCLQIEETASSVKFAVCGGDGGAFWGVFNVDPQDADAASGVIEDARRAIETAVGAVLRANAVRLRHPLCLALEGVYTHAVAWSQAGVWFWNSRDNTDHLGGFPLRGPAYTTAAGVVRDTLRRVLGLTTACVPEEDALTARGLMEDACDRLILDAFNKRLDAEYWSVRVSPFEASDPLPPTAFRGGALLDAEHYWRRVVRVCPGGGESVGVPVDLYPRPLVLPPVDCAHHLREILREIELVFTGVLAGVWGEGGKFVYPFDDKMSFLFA
# T1 sequence (P10236 whole entry): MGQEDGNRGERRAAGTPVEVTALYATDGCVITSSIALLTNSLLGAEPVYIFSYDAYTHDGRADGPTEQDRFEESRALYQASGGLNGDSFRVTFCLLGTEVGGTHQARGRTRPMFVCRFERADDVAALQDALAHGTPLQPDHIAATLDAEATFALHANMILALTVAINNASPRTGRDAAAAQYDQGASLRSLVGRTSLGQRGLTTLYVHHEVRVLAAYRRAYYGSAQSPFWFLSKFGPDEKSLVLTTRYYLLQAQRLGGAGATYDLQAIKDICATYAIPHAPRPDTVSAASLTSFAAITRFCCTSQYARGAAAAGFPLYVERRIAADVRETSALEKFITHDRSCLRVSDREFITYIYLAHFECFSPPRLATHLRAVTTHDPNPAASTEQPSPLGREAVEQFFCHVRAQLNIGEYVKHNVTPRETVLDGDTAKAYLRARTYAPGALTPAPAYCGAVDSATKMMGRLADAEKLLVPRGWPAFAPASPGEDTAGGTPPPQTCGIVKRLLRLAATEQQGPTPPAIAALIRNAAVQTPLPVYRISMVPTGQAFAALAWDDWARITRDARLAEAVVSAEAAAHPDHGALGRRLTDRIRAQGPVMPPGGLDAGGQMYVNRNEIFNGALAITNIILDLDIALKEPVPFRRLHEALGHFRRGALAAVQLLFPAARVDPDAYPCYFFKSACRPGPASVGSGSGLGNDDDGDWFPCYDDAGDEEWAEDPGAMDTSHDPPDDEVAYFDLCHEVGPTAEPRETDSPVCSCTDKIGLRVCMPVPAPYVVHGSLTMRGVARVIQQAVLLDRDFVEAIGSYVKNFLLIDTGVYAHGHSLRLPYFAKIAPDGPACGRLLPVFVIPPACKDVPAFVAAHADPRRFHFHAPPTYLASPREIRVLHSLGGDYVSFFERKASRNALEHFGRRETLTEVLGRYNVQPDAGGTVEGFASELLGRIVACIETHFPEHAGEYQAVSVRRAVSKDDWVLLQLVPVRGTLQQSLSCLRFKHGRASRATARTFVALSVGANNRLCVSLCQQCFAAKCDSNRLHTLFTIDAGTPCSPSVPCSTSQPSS
# T1 sequence (P10189 whole entry): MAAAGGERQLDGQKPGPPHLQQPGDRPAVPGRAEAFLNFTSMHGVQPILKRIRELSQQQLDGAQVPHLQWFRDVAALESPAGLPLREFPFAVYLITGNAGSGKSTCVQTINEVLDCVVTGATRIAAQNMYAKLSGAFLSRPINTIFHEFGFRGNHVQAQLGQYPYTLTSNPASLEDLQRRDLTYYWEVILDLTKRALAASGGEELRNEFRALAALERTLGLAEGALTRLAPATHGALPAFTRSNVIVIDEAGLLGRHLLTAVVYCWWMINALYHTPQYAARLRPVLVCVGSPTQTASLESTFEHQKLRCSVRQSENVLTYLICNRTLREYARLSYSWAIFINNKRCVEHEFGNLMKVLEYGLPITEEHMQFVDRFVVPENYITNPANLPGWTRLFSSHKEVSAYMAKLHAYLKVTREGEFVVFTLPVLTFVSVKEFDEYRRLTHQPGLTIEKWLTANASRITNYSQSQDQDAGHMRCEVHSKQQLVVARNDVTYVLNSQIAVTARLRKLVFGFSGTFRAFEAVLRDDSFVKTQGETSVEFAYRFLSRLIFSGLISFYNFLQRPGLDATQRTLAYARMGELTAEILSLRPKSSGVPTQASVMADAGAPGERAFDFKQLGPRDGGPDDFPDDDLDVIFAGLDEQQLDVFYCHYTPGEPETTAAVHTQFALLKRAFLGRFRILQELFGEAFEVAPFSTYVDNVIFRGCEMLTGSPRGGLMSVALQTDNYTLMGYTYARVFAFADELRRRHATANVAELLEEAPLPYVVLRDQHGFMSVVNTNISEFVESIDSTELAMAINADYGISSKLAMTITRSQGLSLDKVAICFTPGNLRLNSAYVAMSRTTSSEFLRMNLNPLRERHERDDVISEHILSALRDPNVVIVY
SMILES,EC50 (HCMV (strain AD169) [1]; [3]),EC50 (HSV-1 strain F or KOS; [4]),IC50 (HSV-1 helicase-primase; Group 1 Table 1 entries),also measured
CC(C)CN(CC(=O)Nc1ccc(-c2csc(N)n2)cc1)C(=O)OCc1ccccc1 [Example 110],> 40 µM,1.6 µM,3.2 µM,–
COC(=O)N(CC(=O)Nc1ccc(-c2csc(N)n2)cc1)Cc1ccccc1 [Example 87],18 µM,1.1 µM,2.8 µM,–
Nc1nc(-c2ccc(NC(=O)[C@H]3CCC(=O)N3Cc3ccccc3)cc2)cs1 [Example 1],–,–,–,EC50 (HCMV (strain AD169) [1]; [5]): 0.25 µM; EC50 (HSV-1 strain F or KOS; [6]): 3.4 µM; EC50 (HCMV (strain AD169) [2]; [5]): 80 µM
CCCC(CCC)N(CC(=O)Nc1ccc(-c2csc(N)n2)cc1)C(=O)OCc1ccccc1 [Example 141],> 121 µM,3.5 µM,4 µM,–
C[C@H](NCc1ccccc1)C(=O)Nc1ccc(-c2csc(N)n2)cc1 [Example 12],–,–,–,EC50 (HCMV (strain AD169) [1]; [7]): 4.1 µM; EC50 (HSV-1 strain F or KOS; [8]): 0.82 µM; IC50 (HSV-1 helicase-primase; Group 1 Table 5 entries): 1.3 µM
CN(C)S(=O)(=O)N(CC(=O)Nc1ccc(-c2csc(N)n2)cc1)Cc1ccccc1 [Example 106],> 6 µM,0.16 µM,1 µM,–
C[C@@H](C(=O)Nc1ccc(-c2csc(N)n2)cc1)N(Cc1ccccc1)C(=O)C1CCCCC1 [Example 14],–,–,–,EC50 (HCMV (strain AD169) [1]; [7]): 10 µM; EC50 (HSV-1 strain F or KOS; [8]): 0.009 µM; IC50 (HSV-1 helicase-primase; Group 1 Table 5 entries): 0.11 µM
CC(=O)N[C@@H](Cc1ccccc1)C(=O)Nc1ccc(-c2csc(N)n2)cc1 [Example 21],–,–,–,EC50 (HCMV (strain AD169) [1]; [7]): 4.4 µM; EC50 (HSV-1 strain F or KOS; [8]): 4.7 µM; IC50 (HSV-1 helicase-primase; Group 1 Table 5 entries): 3.1 µM
Nc1nc(-c2ccc(NC(=O)CN(Cc3ccccc3)C(=O)OCc3ccccc3)cc2)cs1 [Example 109],> 20 µM,0.2 µM,0.31 µM,–
COc1ccc(CN(CC(=O)Nc2ccc(-c3csc(N)n3)cc2)C(=O)C2CCCCC2)cc1 [Example 46],8 µM,0.094 µM,0.075 µM,–
Nc1nc(-c2ccc(NC(=O)CN(CC3CCCCC3)C(=O)CC3CCCCC3)cc2)cs1 [Example 76],25 µM,0.16 µM,0.08 µM,–
CN(C)c1nc(-c2ccc(NC(=O)CNCc3ccccc3)cc2)cs1 [Example 12],–,–,–,"EC50 (HCMV (strain AD169) [1]; Human betaherpesvirus 5, AD169, Hs68, Group 1 Table 3 entries): > 79 µM; EC50 (HSV-1 strain F or KOS; Human alphaherpesvirus 1, BHK-21, Group 1 Table 3 entries): 21 µM; IC50 (HSV-1 helicase-primase; Group 1 Table 3 entries): > 50 µM"
Nc1nc(-c2ccc(NC(=O)CN(CCC3CCCCC3)C(=O)C3CCCCC3)cc2)cs1 [Example 103],> 41 µM,0.24 µM,0.15 µM,–
CC(C)(C)OC(=O)N1CCC[C@H]1C(=O)Nc1ccc(-c2csc(N)n2)cc1 [Example 4],–,–,–,EC50 (HCMV (strain AD169) [1]; [5]): > 64 µM; EC50 (HSV-1 strain F or KOS; [6]): 0.21 µM; IC50 (HSV-1 helicase-primase; Group 1 Table 6 entries): 0.46 µM
CC(C)(C)CN(CC(=O)Nc1ccc(-c2csc(N)n2)cc1)C(=O)OC(C)(C)C [Example 142],4 µM,2.4 µM,6.3 µM,–
CN(CCc1ccccn1)C(=O)[C@H](Cc1ccccc1)NC(=O)Nc1ccc(-c2csc(N)n2)cc1 [Example 9],–,–,–,"EC50 (HCMV (strain AD169) [1]; [9]): 4.1 µM; EC50 (HSV-1 strain F or KOS; Human alphaherpesvirus 1, BHK-21, Group 2 Table 1 entries): 2.9 µM; EC50 (HCMV (strain AD169) [2]; [9]): 36 µM"
Nc1nc(-c2ccc(NC(=O)CNCc3cccs3)cc2)cs1 [Example 13],8.3 µM,3.7 µM,3.8 µM,–
C[C@H](C(=O)Nc1ccc(-c2csc(N)n2)cc1)N(Cc1ccccc1)C(=O)C1CCCCC1 [Example 15],–,–,–,EC50 (HCMV (strain AD169) [1]; [7]): 3.2 µM; EC50 (HSV-1 strain F or KOS; [8]): 0.006 µM; IC50 (HSV-1 helicase-primase; Group 1 Table 5 entries): 0.041 µM
